Measured values reported in paper PMC6214487 (Journal of drug design and research, 2018).
Read-outs that look alike come from different tables or passages of the source.

What was measured:
[1] = tested on: HIV-1 isolates from subtypes A, B, and C; experiment: Replication in PBMCs, summary over the three isolates tested; assay type: cell-based; conditions: read-out: Median IC50
[2] = Toxicity to PBMCs, MTS assay; conditions: human, primary peripheral blood mononuclear cells (PBMCs)
PBMCs = experiment: Toxicity to PBMCs, MTS assay; conditions: for Therapeutic Index (CC50/IC50): calculated using the median IC50 across all three isolates
[3] = tested on: HIV-1 pseudovirus CA wild-type; experiment: organism not typed; assay type: cell-based; conditions: for IC50: read-out: IC50, Wild-type virus
[4] = tested on: HIV-1 pseudovirus CA N57A; experiment: organism not typed; assay type: cell-based; conditions: for IC50: read-out: IC50, CA N57A virus
[5] = tested on: HIV-1 pseudovirus CA Q63A; experiment: organism not typed; assay type: cell-based; conditions: for IC50: read-out: IC50, CA Q63A virus
[6] = tested on: HIV-1 pseudovirus CA K70A; experiment: organism not typed; assay type: cell-based; conditions: for IC50: read-out: IC50, CA K70A virus
[7] = tested on: HIV-1 pseudovirus CA N74D; experiment: organism not typed; assay type: cell-based; conditions: for IC50: read-out: IC50, CA N74D virus
[8] = tested on: HIV-1 pseudovirus CA P90A; experiment: organism not typed; assay type: cell-based; conditions: for IC50: read-out: IC50, CA P90A virus
293T cells = assay type: cell-based, human
U87.CD4. cells = assay type: cell-based, human
[9] = tested on: HIV-1JR-FL Envpseudotyped viruses; experiment: Viral production by p24 quantitation; assay type: cell-based; conditions: 20 μM, relative to DMSO
[10] = tested on: AMLV Envpseudotyped HIV-1; assay type: cell-based; conditions: single round infection assay
[11] = tested on: VSV-pseudotyped HIV-1 virus; assay type: cell-based
[12] = tested on: HIV-1JR-FLEnv infected U87.CD4.CCR5 cells; experiment: Q-PCR analysis of viral DNA; assay type: cell-based; conditions: CX06 15 μM
[13] = tested on: VSV-G pseudotyped HIV-1 in TZM-bl cells; assay type: cell-based
HIV-1 CA = HIV-1 CA (Human immunodeficiency virus type 1 group M subtype B, UniProt P12493); conditions: capsid 30 μM, compound 50 μM, compared to DMSO
purified recombinant RT = purified recombinant RT (Human immunodeficiency virus type 1 group M subtype B, UniProt P04585); experiment: Colorimetric reverse transcriptase assay kit; conditions: CX06 15 μM, PF-74 1.5 μM, TMC278 1 nM, relative to DMSO
HIV-1 92RW025 = experiment: Replication of primary isolate in PBMCs; assay type: cell-based; conditions: read-out: IC50 HIV-1 92RW025 Clade A; primary human PBMCs
HIV-1 JR-CSF = experiment: Replication of primary isolate in PBMCs; assay type: cell-based; conditions: read-out: IC50 HIV-1 JR-CSF Clade B; primary human PBMCs
HIV-1 93MW965 = experiment: Replication of primary isolate in PBMCs; assay type: cell-based; conditions: read-out: IC50 HIV-1 93MW965 Clade C; primary human PBMCs
[14] = tested on: HIV-1JR-FL envelope pseudotyped virus; experiment: Single-round infection assay, early-stage events; conditions: compound present at infection of target cells, luciferase
[15] = target: HIV-1 NL4-3 disulfide stabilized CA hexamer (HIV-1 NL4-3); experiment: SPR
[16] = Human immunodeficiency virus 1, PBMC

For `CC(C)c1nc2c(n1CC(=O)NC(Cc1ccccc1)C(=O)N(C)c1ccccc1)CCCC2` (stereo not shown) [CX03, 2-(2-(2-isopropyl-4,5,6,7-tetrahydro-1H-benzo[d]imidazol-1-yl)acetamido)-N-methyl-N,3-diphenylpropanamide], which IC50 [1, 16] is on record?
The IC50 was 5.9 ± 0.9 µM.

And the CC50 [2]?
The CC50 was > 100 µM.

What about the “Therapeutic Index (CC50/IC50)” value (PBMCs) of the same compound?
The value was >16.9.

For `CN(C(=O)C(Cc1ccccc1)NC(=O)Cc1cnn(C(F)F)c1)c1ccccc1` (stereo not shown) [CX04, 2-(2-(1-(difluoromethyl)-1H-pyrazol-4-yl)acetamido)-N-methyl-N,3-diphenylpropanamide], which IC50 [1, 16] is on record?
The IC50 was 17.1 ± 2.7 µM.

What about the CC50 [2] of the same compound?
Its CC50 is > 100 µM.

And the “Therapeutic Index (CC50/IC50)” value (PBMCs)?
The value was >5.84.

Which IC50 [1, 16] does the source give for `CN(C(=O)C(Cc1ccccc1)NC(=O)Cc1cnn(C)c1C(F)(F)F)c1ccccc1` (stereo not shown) [CX05, N-methyl-2-(2-(1-methyl-5-(trifluoromethyl)-1H-pyrazol-4-yl)acetamido)-N,3-diphenylpropanamide] here?
The IC50 was 18 ± 4.6 µM.

What about the CC50 [2] of the same compound?
Its CC50 is > 100 µM.

What about the “Therapeutic Index (CC50/IC50)” value (PBMCs) of the same compound?
The value was >5.58.

Which results are given for `CCn1ncc(CC(=O)NC(Cc2ccccc2)C(=O)N(C)c2ccccc2)c1C(F)F` (stereo not shown) [CX06, 2-(2-(5-(difluoromethyl)-1-ethyl-1H-pyrazol-4-yl)acetamido)-N-methyl-N,3-diphenylpropanamide]?
IC50 [1, 16]: 5.9 ± 1 µM; Fold increase, Wild-type virus ([3]; IC50 relative to wild-type): 1; IC50 [3]: 3.1 ± 0.5 µM; Fold increase, CA N57A virus ([4]; IC50 relative to wild-type): 1.4; IC50 [4]: 4.3 ± 0.5 µM; Fold increase, CA Q63A virus ([5]; IC50 relative to wild-type): 6.9; IC50 [5]: 21.4 ± 1.4 µM; Fold increase, CA K70A virus ([6]; IC50 relative to wild-type): 1.03; IC50 [6]: 3.2 ± 0.3 µM; Fold increase, CA N74D virus ([7]; IC50 relative to wild-type): 0.8; IC50 [7]: 2.4 ± 0.7 µM; Fold increase, CA P90A virus ([8]; IC50 relative to wild-type): 1; IC50 [8]: 3.1 ± 0.5 µM; Cytotoxicity (293T cells): not cytotoxic; Cytotoxicity (U87.CD4. cells): not cytotoxic; Viral production, p24 content [9]: decreasing the amount of virus released from the cells; Inhibition of AMLV Env pseudotyped HIV-1 infection [10]: almost identical potency as when the HIV-1JR-FLEnv was used; Time of addition at which compound is effective [11]: ≤ 6 hours post-infection; 2-LTR circles ([12]; 24 h): significantly affected; Early RT products (RU5) ([12]; 48 h): slightly diminished; Integrated pro-virus (Alu-PCR) ([12]; 48 h): significantly affected; Late RT products (U5Ψ) ([12]; 48 h): significantly affected; Nuclear import of INsfGFP complexes [13]: efficiently inhibited the appearance of INsfGFP spots in the nucleus; Effect on capsid assembly, turbidity at 350 nm (HIV-1 CA): reduced the multimerization of HIV-1 CA; CC50 [2]: > 100 µM; Therapeutic Index (CC50/IC50) (PBMCs): >17.0; Effect on RT activity in vitro (purified recombinant RT): no effect on RT activity

For `Cc1ccnc2c1NC(=O)c1cccnc1N2C1CC1` [Nevirapine], which “Nuclear import of INsfGFP complexes” value [13] is on record?
The value was “without effect”.

With `Cc1[nH]c2ccccc2c1CC(=O)N[C@@H](Cc1ccccc1)C(=O)N(C)c1ccccc1` [PF-74, reference compound] as the compound, how does the IC50 (HIV-1 92RW025) read?
The IC50 was 1.5 ± 0.9 µM.

What about the IC50 (HIV-1 JR-CSF) of the same compound?
The IC50 was 0.6 ± 0.2 µM.

What about the IC50 (HIV-1 93MW965) of the same compound?
The IC50 was 0.6 ± 0.1 µM.

And the IC50 ([1]; over the three isolates tested, PBMCs)?
The IC50 was 0.9 ± 0.5 µM.

What about the IC50 ([3]; single-round infection) of the same compound?
The IC50 was 0.22 ± 0.05 µM.

And the IC50 ([4]; single-round infection)?
Its IC50 is 0.25 ± 0.04 µM.

What about the IC50 ([5]; single-round infection) of the same compound?
Its IC50 is 0.4 ± 0.05 µM.

And the IC50 ([6]; single-round infection)?
Its IC50 is 0.25 ± 0.08 µM.

And the IC50 ([7]; single-round infection)?
Its IC50 is 0.5 ± 0.1 µM.

What about the IC50 ([8]; single-round infection) of the same compound?
Its IC50 is 0.21 ± 0.04 µM.

What about the “Nuclear import of INsfGFP complexes” value [13] of the same compound?
The value was “efficiently inhibited the appearance of INsfGFP spots in the nucleus”.

What about the CC50 (PBMCs; MTS assay, PBMCs) of the same compound?
Its CC50 is 90.5 ± 5.9 µM.

What about the “Effect on RT activity in vitro” value (purified recombinant RT) of the same compound?
Its value is “no effect on RT activity”.

And the “Effect on early-stage events, infectivity of target cells” value [14]?
Its value is “dual-stage inhibition profile”.

With “NUP153 1407-1423 peptide (from UniProt P49790 1407-1423)” as the compound, how does the Kd [15] read?
Its Kd is 202 µM.
